{"source": "patent US20240226034A1", "about": "“Use of Terpenoids and Salicylates as Anesthetics and Analgesics” (THE REGENTS OF THE UNIVERSITY OF CALIFORNIA, priority 2021, published 2024)", "key": {"[1]": {"biological_target": "T1, NMDA receptors (rat NR1 GRIN1 and rat NR2a GRIN2A subunits) (Rattus norvegicus, UniProt P35439+Q00959)", "T1 construct": "expressed in transfected cells; host or cells: Xenopus laevis oocytes (intracytoplasmic RNA injection)", "T1 sequence (Q00959 20-1464 limits assumed, other chains not shown)": "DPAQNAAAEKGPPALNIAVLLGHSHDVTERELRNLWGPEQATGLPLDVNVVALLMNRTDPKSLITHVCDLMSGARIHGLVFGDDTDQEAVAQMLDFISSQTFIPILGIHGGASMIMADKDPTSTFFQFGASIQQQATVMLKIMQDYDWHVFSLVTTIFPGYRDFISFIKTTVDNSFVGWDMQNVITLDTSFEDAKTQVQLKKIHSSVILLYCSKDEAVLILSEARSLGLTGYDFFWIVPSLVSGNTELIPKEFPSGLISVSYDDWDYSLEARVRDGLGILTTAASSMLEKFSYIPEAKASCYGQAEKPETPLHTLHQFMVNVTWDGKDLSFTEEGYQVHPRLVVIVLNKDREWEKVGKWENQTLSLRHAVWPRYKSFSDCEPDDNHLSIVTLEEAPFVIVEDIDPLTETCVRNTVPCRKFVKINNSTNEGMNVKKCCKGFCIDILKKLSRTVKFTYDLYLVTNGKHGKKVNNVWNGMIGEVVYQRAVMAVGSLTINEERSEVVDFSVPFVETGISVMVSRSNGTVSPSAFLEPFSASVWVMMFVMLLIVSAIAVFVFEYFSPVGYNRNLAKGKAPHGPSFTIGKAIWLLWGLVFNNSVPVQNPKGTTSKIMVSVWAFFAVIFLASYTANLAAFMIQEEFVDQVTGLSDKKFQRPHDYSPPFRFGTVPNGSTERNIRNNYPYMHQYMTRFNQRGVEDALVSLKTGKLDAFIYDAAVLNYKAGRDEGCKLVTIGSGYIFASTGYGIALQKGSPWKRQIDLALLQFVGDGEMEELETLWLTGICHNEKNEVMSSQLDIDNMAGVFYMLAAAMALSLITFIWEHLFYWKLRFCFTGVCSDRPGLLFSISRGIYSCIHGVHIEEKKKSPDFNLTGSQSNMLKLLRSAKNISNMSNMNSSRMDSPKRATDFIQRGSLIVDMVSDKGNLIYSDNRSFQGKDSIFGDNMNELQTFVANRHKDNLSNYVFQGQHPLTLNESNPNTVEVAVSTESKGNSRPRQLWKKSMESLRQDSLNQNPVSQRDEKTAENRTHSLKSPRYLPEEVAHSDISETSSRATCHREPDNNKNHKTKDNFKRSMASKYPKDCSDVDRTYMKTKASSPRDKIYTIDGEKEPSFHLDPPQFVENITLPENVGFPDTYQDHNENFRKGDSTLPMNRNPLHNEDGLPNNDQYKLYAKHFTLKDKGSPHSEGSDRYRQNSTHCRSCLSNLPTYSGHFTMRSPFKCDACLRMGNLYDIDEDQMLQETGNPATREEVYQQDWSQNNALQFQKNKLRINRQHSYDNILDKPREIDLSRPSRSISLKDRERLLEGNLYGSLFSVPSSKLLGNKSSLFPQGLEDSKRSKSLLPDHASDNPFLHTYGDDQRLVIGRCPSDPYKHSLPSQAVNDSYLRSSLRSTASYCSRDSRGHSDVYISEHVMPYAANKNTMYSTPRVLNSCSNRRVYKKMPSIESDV", "experiment": "Two-electrode voltage clamp of NMDA receptors expressed in Xenopus oocytes", "format": "cell-based", "settings": "for inhibition of NMDA receptors: at the mean plasma concentration during IV infusion anesthesia in rats; for Hill coefficient, NMDA receptor inhibition: dose-response model; for effect on NMDA receptor currents: dose-response, oocytes", "excerpt": "Ovaries removed from sexually mature Xenopus laevis frogs were bluntly dissected to remove surrounding connective tissue and then digested with 0.2% type I collagenase in an oocyte Ringer's solution. Once free from thecal cells and connective tissue, individual oocytes were rinsed, sorted, and stored in a modified Barth's solution (R. Brosnan et al., Anesth. Analg. 103, (2006): 86; L. Yang, P. S. Milutinovic, R. J. Brosnan, E. I. Eger 2nd, & J. M. Sonner, Anesth. Analg. 105, (2007): 393; R. J. Brosnan, F. B. Fukushima, & T. L. Pham, Anaesth. Analg. 44, (2017): 577; A. Cenani, R. J. Brosnan, & H. K. Knych, Pharmacology 103, (2019): 10).\nHeteromeric GABAA receptors were expressed in oocytes by blind intranuclear injection of 1 ng DNA encoding the human al (GABRA1) and rat B2 (GABRB2) subunits in a 1:1 ratio. NMDA receptors were expressed by intracytoplasmic injection of 5 ng RNA encoding rat NR1 (GRIN1) and rat NR2a (GRIN2A) subunits in a 1:1 ratio. Nax 1.2 channels were expressed by injection of 5 ng RNA encoding the human SCN2A gene.\nStudies of NMDA receptors were carried out using equipment identical to that described for GABAA receptors. Transmembrane potential was clamped at −80 mV, and oocytes were perfused with a barium-containing FR solution (Ba-FR) which substituted equimolar BaCl2 for calcium salts and contained 0.1 mM EGTA as a calcium chelator. After 5 min, the perfusate was changed for 30 s to barium FR containing 0.1 mM glutamate plus 0.01 mM glycine (Ba-FREG) as receptor agonists which produce an NMDA receptor current greater than 99% of the maximal response. Next, Ba-FR containing the study drug was perfused for 5 min and then switched to Ba-FREG containing the same test article for 30 s. The drug was then washed out with a 5-min perfusion of Ba-FR followed by a 30-s exposure to Ba-FREG to confirm post-drug currents had returned to within 10% of pre-drug values.\nThe change in whole cell peak current before and during agonist exposure (for GABAA and NMDA receptors) or before and during the voltage step clamp (for Nav1.2 channels) was measured in the tracings immediately before and during drug exposure. Percent change in current was calculated as follows:\n[formula] • where IB is the baseline pre-drug current peak and ID is the drug current peak. For each drug and ion channel, data were fit to a Hill equation using nonlinear regression with sequential quadratic programming and bootstrap estimates of parameter standard errors (SPSS, v. 27; IBM, Armonk, NY, USA). In the model, maximum drug inhibition (Imax) was constrained to not be less than −100%. Initial parameter estimates were seeded with values based on visual inspection of respective dose-response curves in order to facilitate model convergence."}, "Sprague Dawley rats": {"test_system": "Sprague Dawley rats", "experiment": "Continuous IV infusion anesthesia", "format": "in vivo, rat", "settings": "for time after start of injection to loss-of-righting and absent tail clamp response: continuous 0.2 mL/min IV infusion of 10% emulsion", "description": "(§1) Lateral tail veins were catheterized in eight, 70-day-old, male, Sprague Dawley rats weighing 309±6 g. A 10% solution of L-carvone or methyl salicylate in 20% […]® was each administered IV to 8 rats (4 animals per drug treatment) by using a syringe pump at a rate of 12 mL/h. When rats lost their righting reflex and were unresponsive to a tail clamp, a midline laparotomy was performed, the abdominal aorta catheterized, and the rat exsanguinated. Blood was collected in a heparin tube and centrifuged; plasma was separated and stored in cryogenic tubes at −80° C. until analysis."}, "[2]": {"experiment": "Plasma concentration during IV infusion anesthesia (LC-MS)", "format": "in vivo, rat", "description": "as §1\nSerum calibrations were prepared by dilution of working standard solutions of methyl salicylate and L-carvone with drug-free rat serum (Innovative Research, Novi, MI, USA) to concentrations ranging from 0.05 to 500 μg/mL. Calibration curves and negative control samples were prepared fresh for each quantitative assay. In addition, quality control samples (drug-free rat serum fortified with analyte at 3-4 concentrations within the standard curve) were included as an additional check of accuracy.\nPrior to analysis, 100 μL of each serum sample was diluted with 100 μL of acetonitrile (ACN):1 M acetic acid (9:1, v:v) and 50 μL of methanol to precipitate proteins. The samples were vortexed for 2 min to mix, refrigerated for 20 min, vortexed for an additional 1 min, centrifuged (4,300 rpm/3, 102 g) for 10 min at 4 °C, and 10 μL injected into the liquid chromatography tandem mass spectrometry system.\nQuantitative analysis was performed on an LTQ XL Orbitrap mass spectrometer (Thermo Scientific, San Jose, CA, USA) coupled with a Waters Acquity UPLC (Milford, MA, USA). […] Detection and quantification were conducted using full-scan accurate mass from 145 to 160 (m/z). […]\nThe precision and accuracy of the assay was determined by assaying quality control samples in replicates (n=6). […] The technique was optimized to provide limits of quantitation of 0.5 μg/mL and 0.05 μg/mL and limits of detection of approximately 0.1 μg/mL and 0.025 μg/mL for methyl salicylate and L-carvone, respectively."}}}
{"compound": "COC(=O)c1ccccc1O", "note": "[methyl salicylate]", "values": [{"measurement": "inhibition of NMDA receptors", "setting": "[1]", "result": 53, "unit": "%"}, {"measurement": "Hill coefficient, NMDA receptor inhibition", "setting": "[1]", "result": "~1"}, {"measurement": "effect on NMDA receptor currents", "setting": "[1]", "result": "dose-dependently inhibited"}, {"measurement": "time after start of injection to loss-of-righting and absent tail clamp response", "setting": "Sprague Dawley rats", "result": "3 to 4", "unit": "min"}, {"measurement": "excitement after injection", "setting": "Sprague Dawley rats; rat, in vivo, iv", "result": "transient excitement in half of the animals"}, {"measurement": "tonic or clonic muscle activity", "setting": "Sprague Dawley rats; rat, in vivo, iv", "result": "No tonic or clonic muscle activity"}, {"measurement": "mean plasma concentration (±SEM) during IV infusion", "setting": "[2]; male, Sprague Dawley, rat, in vivo, iv", "result": "2700 ± 400", "unit": "µM"}]}
{"compound": "L-carvone", "values": [{"measurement": "NMDA receptor current at highest concentration", "setting": "[1]; 10 mM drug", "result": "near or complete loss of channel currents"}, {"measurement": "greater inhibition of NMDA receptors and Nav1.2 channels than at the methyl salicylate plasma concentrations", "setting": "[1]; at L-carvone plasma concentrations during anesthesia, NMDA and Nav1.2", "result": "15-30%"}, {"measurement": "inhibition of NMDA receptors", "setting": "[1]", "result": 71, "unit": "%"}, {"measurement": "Hill coefficient, NMDA receptor inhibition", "setting": "[1]", "result": "~1"}, {"measurement": "effect on NMDA receptor currents", "setting": "[1]", "result": "dose-dependent inhibition"}, {"measurement": "tonic or clonic muscle activity", "setting": "Sprague Dawley rats; continuous 0.2 mL/min IV infusion", "result": "tonic muscle contractions suggestive of seizure"}, {"measurement": "time after start of injection to loss-of-righting and absent tail clamp response", "setting": "Sprague Dawley rats", "result": "2 to 4", "unit": "min"}, {"measurement": "plasma concentration relative to that for methyl salicylate", "setting": "[2]; at the time general anesthesia was achieved", "result": 3, "unit": "times"}, {"measurement": "mean plasma concentration (±SEM) during IV infusion", "setting": "[2]; rats N=4, at loss of righting reflex and tail clamp response", "result": "7900 ± 3000", "unit": "µM"}]}
